Data from PMC8996072, “Ag120-Mediated Inhibition of ASCT2-Dependent Glutamine Transport has an Anti-Tumor Effect on Colorectal Cancer Cells” (Frontiers in Pharmacology, 2022).

Molecular target: T1, ASCT2 (Homo sapiens, UniProt Q15758)
T1 construct: gene SLC1A5
T1 sequence (Q15758 1-541): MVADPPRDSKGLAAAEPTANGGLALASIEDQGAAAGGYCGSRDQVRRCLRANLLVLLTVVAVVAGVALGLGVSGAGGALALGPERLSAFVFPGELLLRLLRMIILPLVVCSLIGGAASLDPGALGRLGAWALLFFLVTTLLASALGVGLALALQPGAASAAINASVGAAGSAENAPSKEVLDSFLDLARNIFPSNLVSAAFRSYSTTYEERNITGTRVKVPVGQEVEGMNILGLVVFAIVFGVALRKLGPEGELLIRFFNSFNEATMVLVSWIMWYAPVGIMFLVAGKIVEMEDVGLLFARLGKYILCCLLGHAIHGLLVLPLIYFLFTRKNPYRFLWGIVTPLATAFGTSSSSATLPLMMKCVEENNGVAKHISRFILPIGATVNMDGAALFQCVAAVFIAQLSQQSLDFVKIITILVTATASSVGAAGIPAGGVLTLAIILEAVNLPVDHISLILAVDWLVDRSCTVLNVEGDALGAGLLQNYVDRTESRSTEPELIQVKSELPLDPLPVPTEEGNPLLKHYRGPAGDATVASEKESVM
Experiment: SPR (Biacore T200), purified human ASCT2
Assay type: binding

N#Cc1ccnc(N2C(=O)CC[C@H]2C(=O)N(c2cncc(F)c2)[C@H](C(=O)NC2CC(F)(F)C2)c2ccccc2Cl)c1 [Ag120]
Kd: 5.91 µM
